Results on two compounds are retold here after patent publication US20250134867A1, “METHOD FOR MODULATING LIPID METABOLISM, AMELIORATING NON-ALCOHOLIC FATTY LIVER DISEASE AND METABOLIC SYNDROME BY USING 6-METHOXYBENZOXAZOLINONE” (Taichung District Agricultural Research and Extension …, priority 2023, published 2025).

SMILES strings stand for the structures.

Experiment [1] concerns HFD-induced obese C57BL/6J mice. The experiment can be described thus: Liver fat deposition and liver damage markers (NAFLD) in HFD-induced obese mice. Format: in vivo. Conditions: for liver weight / ratio of liver weight and body weight / lipid accumulation in the liver tissue (H&E and Oil Red O staining) / hepatic cholesterol (TC) level / hepatic triglyceride (TG) level: HFD mice, 12 weeks oral; for liver weight: CX 10 and 30 mg/kg/day, EGCG 30 mg/kg/day; for ratio of liver weight and body weight: among all groups; for lipid accumulation in the liver tissue (H&E and Oil Red O staining): normal morphology of liver cells maintained; for hepatic cholesterol (TC) level / hepatic triglyceride (TG) level: vs HFD; for serum albumin (ALB) level: compared with ND group, HFD group significantly higher. An excerpt: The animals used in the examples are described below. 5-week-old male C57BL/6J mice were purchased from The National Laboratory Animal Center, Taipei, Taiwan and were maintained in a temperature-controlled room on a 12-h light-dark cycle. They were housed with four per cage and had free access to food and drinking water. Mice fed with a standard diet and adapted to the environment for 1 week were subsequently divided randomly into five groups. The ND group (n=8) continued on the same diet, whereas the other four groups (n=8 per group) were switched to the HFD (494 kcal/100 g, 45% energy as fat; TestDiet Inc., USA). Among the four HFD groups, three groups started to receive CX at 10 mg/kg/day (CX10 group), CX at 30 mg/kg/day (CX30 group), and epigallocatechin gallate (EGCG) (Sigma, Inc., USA) at 30 mg/kg/day (EGCG30 group) by oral gavage. EGCG was suspended in 0.5% methylcellulose solution for oral administration. Food consumption and weight gain were measured daily and weekly, respectively. After 12 weeks, all mice were sacrificed. Serum samples, liver tissue, epididymis adipose tissue and feces were harvested for further analysis. The experimental protocol was approved by the Animal Research Committee of the National Yang Ming Chiao Tung University (IACUC no. 1091013), and all procedures followed The Guide for the Care and Use of Laboratory Animals (NIH publication, 85-23, revised 1996) and the guidelines of the Animal Welfare Act, Taiwan. The procedure regarding immunohistochemical tissue characterization is as follows. During dissection of the mice, epididymis adipose tissue and liver were isolated, weighed, and subsequently fixed in 10% paraformaldehyde in PBS. After overnight fixation, tissues were embedded in paraffin for hematoxylin and eosin (H&E) staining. All specimens were observed microscopically (Carl Zeiss Inc., Germany) at 200× magnification. […] The procedure regarding biochemical characterization is as follows. The serum triglyceride (TG), total cholesterol (TC), high-density lipoprotein-cholesterol (HDL-C), glutamic oxaloacetic transaminase (GOT), glutamic pyruvic transaminase (GPT), albumin (ALB), uric acid (UA), and creatinine (CRE) levels were measured using enzymatic assay kits with a FUJI DRI-CHEM analyzer (Fujifilm, Tokyo, Japan). The LDL-C level was calculated as [(TC)-(HDL-C)-(TG/5)]. The procedure regarding triglyceride and cholesterol analysis of liver tissue is as follows. For triglyceride and cholesterol determinations, mouse liver tissues were extracted and analyzed using triglyceride and cholesterol quantitation assay kits (Abcam, UK), respectively, according to the manufacturer's instruction.

Experiment [2] has the same test system. The experiment can be described thus: Renal function markers in HFD-induced obese mice. Format: in vivo. Conditions: for serum CRE level, difference to ND group: 30 mg/kg/day oral, CX30, ND and EGCG groups compared; for serum CRE level, difference to ND group / serum uric acid (UA) level, difference to ND group: 12 weeks; for serum uric acid (UA) level, difference to ND group: CX 10-30 mg/kg/day, EGCG 30 mg/kg/day oral, compared with ND group. From the text:
The animals used in the examples are described below. 5-week-old male C57BL/6J mice were purchased from The National Laboratory Animal Center, Taipei, Taiwan and were maintained in a temperature-controlled room on a 12-h light-dark cycle. They were housed with four per cage and had free access to food and drinking water. Mice fed with a standard diet and adapted to the environment for 1 week were subsequently divided randomly into five groups. The ND group (n=8) continued on the same diet, whereas the other four groups (n=8 per group) were switched to the HFD (494 kcal/100 g, 45% energy as fat; TestDiet Inc., USA). Among the four HFD groups, three groups started to receive CX at 10 mg/kg/day (CX10 group), CX at 30 mg/kg/day (CX30 group), and epigallocatechin gallate (EGCG) (Sigma, Inc., USA) at 30 mg/kg/day (EGCG30 group) by oral gavage. EGCG was suspended in 0.5% methylcellulose solution for oral administration. Food consumption and weight gain were measured daily and weekly, respectively. After 12 weeks, all mice were sacrificed. Serum samples, liver tissue, epididymis adipose tissue and feces were harvested for further analysis. The experimental protocol was approved by the Animal Research Committee of the National Yang Ming Chiao Tung University (IACUC no. 1091013), and all procedures followed The Guide for the Care and Use of Laboratory Animals (NIH publication, 85-23, revised 1996) and the guidelines of the Animal Welfare Act, Taiwan. The procedure regarding biochemical characterization is as follows. The serum triglyceride (TG), total cholesterol (TC), high-density lipoprotein-cholesterol (HDL-C), glutamic oxaloacetic transaminase (GOT), glutamic pyruvic transaminase (GPT), albumin (ALB), uric acid (UA), and creatinine (CRE) levels were measured using enzymatic assay kits with a FUJI DRI-CHEM analyzer (Fujifilm, Tokyo, Japan). The LDL-C level was calculated as [(TC)-(HDL-C)-(TG/5)].

Where [3] appears, read: CX at both supplementations (10 and 30 mg/kg/day), 12 weeks.
Setting [4] is: CX treatment vs HFD group, 12 weeks oral.

As for `O=C(O[C@@H]1Cc2c(O)cc(O)cc2O[C@@H]1c1cc(O)c(O)c(O)c1)c1cc(O)c(O)c(O)c1` [EGCG, epigallocatechin gallate, reference compound], in experiment [1], the liver weight entry is listed as “significantly lower than HFD group”; the “ratio of liver weight and body weight” value is reported as “did not differ among all groups”; the “lipid accumulation in the liver tissue (H&E and Oil Red O staining)” value is recorded as “greatly ameliorated”; the “hepatic cholesterol (TC) level” value is listed as “much lower”. Moreover, in experiment [1], the “hepatic triglyceride (TG) level” value is reported as “much lower” and the “serum albumin (ALB) level” value was “no difference”. Moreover, in experiment [2], the “serum CRE level, difference to ND group” value is listed as “no significant difference” and the “serum uric acid (UA) level, difference to ND group” value is recorded as “no significant difference”.

Regarding `COc1ccc2[nH]c(=O)oc2c1` [CX, 6-methoxybenzoxazolinone], in experiment [1] (setting [3]), the “serum GOT (HFD-induced high level)” value is “significantly prevented” and the “serum GPT (HFD-induced high level)” value is on record as “significantly prevented”. Also, in experiment [1], the liver weight entry is “significantly lower than HFD group”; the “ratio of liver weight and body weight” value is “did not differ among all groups”; the “lipid accumulation in the liver tissue (H&E and Oil Red O staining)” value is recorded as “greatly ameliorated”; the “hepatic cholesterol (TC) level” value is reported as “much lower”. Further, in experiment [1], the “hepatic triglyceride (TG) level” value is recorded as “much lower” and the “serum albumin (ALB) level” value is recorded as “no difference”. Moreover, in experiment [2], the “serum CRE level, difference to ND group” value is listed as “no significant difference” and the “serum uric acid (UA) level, difference to ND group” value is “no significant difference”. In addition, in experiment [2] (setting [4]), the “serum creatinine (CRE) level” value was “decreased” and the “serum uric acid (UA) level” value was “decreased”.
